pEC50: −log10 of the molar value.

As usually defined, the pEC50 is the negative decadic logarithm of the EC50, by convention in mol/L. By CC50 is commonly meant the concentration that lowers cell viability or growth by half. A low value points to harm at low concentration.

In one series the test system is RSV strain A2. Put plainly: Anti-RSV activity, infectious cytopathic cell protection assay in HEp-2 cells. Type of series: cell-based, Respiratory Syncytial Virus (RSV). Conditions: RSV A2-induced cytopathic effect in HEp-2 cells, 4 days, Cell TiterGlo; read-out: EC50. The method, then: Antiviral activity against RSV is determined using an infectious cytopathic cell protection assay in HEp-2 cells. In this assay, compounds inhibiting viral infection and/or replication produce a cytoprotective effect against the virus-induced cell killing that can be quantified using a cell viability reagent. The techniques used here are novel adaptations of methods described in published literature (Chapman et al., Antimicrob Agents Chemother. 2007, 51 (9):3346-53.)
HEp-2 cells are obtained from ATCC (Manassas, Va.) and maintained in MEM media supplemented with 10% fetal bovine serum and penicillin/streptomycin. Cells are passaged twice a week and kept at subconfluent stage. Commercial stock of RSV strain A2 (Advanced Biotechnologies, Columbia, Md.) is titered before compound testing to determine the appropriate dilution of the virus stock that generates desirable cytopathic effect in HEp-2 cells.
For antiviral tests, HEp-2 cells are grown in large cell culture flasks to near confluency but not fully so. The compounds to be tested are prediluted in DMSO in 384-well compound dilution plates, either in an 8 or 40 sample per plate standardized dose response format. 3-fold serial dilution increments of each test compound are prepared in the plates and test samples are transferred via acoustic transfer apparatus (Echo, Labcyte) at 100 nl per well into cell culture assay 384-well plates. Each compound dilution is transferred in single or quadruplicate samples into dry assay plates, which are stored until assay is ready to go. The positive and negative controls are laid out in opposite on ends of the plate in vertical blocks (1 column).
Subsequently, an infectious mixture is prepared using an appropriate dilution of virus stock previously determined by titration with cells at a density of 50,000/ml and 20 uL/well is added to test plates w/compounds via automation (uFlow, Biotek). Each plate includes negative and positive controls (16 replicates each) to create 0% and 100% virus inhibition standards, respectively. Following the infection with RSV, testing plates are incubated for 4 days in a 37° C. cell culture incubator. After the incubation, a cell viability reagent, Cell TiterGlo (Promega, Madison, Wis.) is added to the assay plates, which are incubated briefly, and a luminescent readout is measured (Envision, Perkin Elmer) in all the assay plates. The RSV-induced cytopathic effect, percentage inhibition, is determined from the levels of remaining cell viability. These numbers are calculated for each tested concentration relative to the 0% and 100% inhibition controls, and the EC50 value for each compound is determined by non-linear regression as a concentration inhibiting the RSV-induced cytopathic effect by 50%. Various potent anti-RSV tool compounds are used as positive controls for antiviral activity.
(Damage to the host cells serves as the signal in cytopathic effect assays.)

The subject of the next series is HEp-2 cells. Kind of series: Cytotoxicity assay in HEp-2 cells. The note with it: uninfected HEp-2 cells, 4 days, CellTiter Glo. Type of series: cell-based. Here is the method: Cytotoxicity of tested compounds is determined in uninfected HEp-2 cells in parallel with the antiviral activity using the cell viability reagent in a similar fashion as described before for other cell types (Cihlar et al., Antimicrob Agents Chemother. 2008,52(2):655-65.). The same protocol as for the determination of antiviral activity is used for the measurement of compound cytotoxicity except that the cells are not infected with RSV. Instead, an uninfected cell mixture at the same density is added at 20 ul/well to plates containing prediluted compounds, also at 100 nl/sample. Assay plates are then incubated for 4 days followed by a cell viability test using the same CellTiter Glo reagent addition and measurement of luminescent readouts. Untreated cell and cells treated at 2 uM puromycin (Sigma, St. Louis, Mo.) serve as 100% and 0% cell viability control, respectively. The percent of cell viability is calculated for each tested compound concentration relative to the 0% and 100% controls and the CC50 value is determined by non-linear regression as a compound concentration reducing the cell viability by 50%.
For orientation: In ATP-based viability assays light output follows the ATP content of the culture.

The next series has as its system MT-4 cells. Kind of series: Cytotoxicity assay in MT-4 cells. Type of series: cell-based. The note with it: 5 days, Cell-Titer Glo. The method, then:
The MT-4 cell line was obtained from the NIH AIDS Research and Reference Reagent Program (Germantown, Md.) and cultured in RPMI-1640 medium (Irvine Scientific, Santa Ana, Calif., Cat #9160) supplemented with 10% FBS, 100 units/mL penicillin, 100 units/mL streptomycin, and 2 mM L-Glutamine. The MT-4 cells were passaged twice per week to maintain cell densities below 0.6×10^6 cells/mL. Complete RPMI-1640 media containing 100× concentrations of 3-fold serially diluted compound, ranging from 26 nM to 530 μM, were stamped in quadruplicate into black 384-well plates. After compound addition, 2×10^3 MT-4 cells were added to each well using a MicroFlo liquid dispenser (BioTek, Winooski, Vt.) and the cells were cultured for 5 days at 37° C. in a 5% CO2 incubator. Following the incubation the cells were allowed to equilibrate to 25° C. and cell viability was determined by adding 25 μL of Cell-Titer Glo viability reagent. The mixture was incubated for 10 minutes at 25° C., and the luminescence signal was quantified on a Victor Luminescence plate reader. The CC50 value is defined as the concentration of compound that reduces cell viability by 50% as determined by the Cell-Titer Glo signal. The data were analyzed using Pipeline Pilot Plate Data Analytics Collection software (Version 7.0, Accelrys, San Diego, Calif.). CC50 values were calculated from a non-linear regression analysis using a 4-parameter sigmoidal dose-response equation: Y=Bottom+(Top-Bottom)/(1+10^[(LogCC50-X)*HillSlope]) where the Top and Bottom were fixed at 100% and 0% cell viability, respectively. CC50 values were calculated as the average± standard deviation of 3 independent experiments.

Take `N#C[C@]1(CO)O[C@@H](c2csc3c(N)ncnc23)[C@H](F)[C@@H]1O` [Example 2, (2R,3R,4R,5S)-5-(4-aminothieno[3,2-D]pyrimidin-7-yl)-4-fluoro-3-hydroxy-2-(hydroxymelthyl)tetrahydrofuran-2-carbonitrile]: the pEC50 with RSV strain A2 is 5.19. In addition, the CC50 was over 100 µM with HEp-2 cells and over 114 µM in the series with MT-4 cells.

These data come from US10179794B2, “Thieno[3,2-d]pyrimidine, furo[3,2-d]pyrimidine, and pyrrolo[3,2-D]pyrimidines useful for treating respiratory syncitial virus infections” (Gilead Sciences, Inc., priority 2014, dated 2019).
